The record followed here is paper PMC10180515, “Biological Evaluation of Triorganotin Derivatives as Potential Anticancer Agents” (Molecules, 2023).

Several values for one entry are separate records, joined by “and”; a condition that tells them apart may be missing. Equal entries are not always repeated. Where two headings read alike, the source gives them in different places. A value given as a limit tells only on which side of the number the result lay.

The subject of data set [1] is U937 cells. The data set is described as follows: MTT assay of metabolic activity, U937. Type of data set: cell-based. For orientation: Tetrazolium dyes change colour on reduction, which living cells bring about.
The test system of the next data set is PBMCs. The data set is described as follows: MTT assay of metabolic activity, PBMCs. Type of data set: cell-based, human.
The subject of data set [2] is CAL-27 cells. Put plainly: MTT assay of metabolic activity, CAL-27. It is filed as cell-based, human.
The test system of data set [3] is CAL-27 cells. The data set is described as follows: Trypan blue exclusion viability test, CAL-27. Type of data set: cell-based, human. Conditions: CAL-27, 24 h.
For a further data set, the system named is 12 bp DNA duplex. The data set is described as follows: NMR interaction with 12 bp DNA duplex. Type of data set: binding. Conditions: 0.2 mM duplex, 6 h incubation; cisplatin two equivalents, TBT-OCOCF3 two or five equivalents. As to the method: In order to investigate the mechanisms underlying the cytotoxicity exerted by TBT-OCOF3, a first approach was to verify whether they were based on a direct interaction with DNA, similar to what was described for metal derivatives such as cisplatin. To this purpose, we investigated if TBT-OCOCF3 could bind to DNA using NMR. For TBT-OCOCF3, the 1D and 2D spectra of 12 bp DNA were acquired in the presence or absence of the compound. As a positive control for the interaction, cisplatin was assayed, which forms adducts or inter- and intra-strand crosslinks resulting in interference in the replication machinery, G2/M cell arrest, and cell death by apoptosis or necrosis. A solution containing 0.2 mM of the duplex, whose sequences are indicated in Figure 3, was annealed directly in the NMR tube. The double-helix formation was confirmed by the appearance of low-field signals belonging to the T- and G-NH groups (Figure 3a, left panel). The DNA’s aromatic signals were assigned to the different types of ^1H nuclei using a combination of ^1H-NMR and ^1H-^1H TOCSY experiments (Figure S3 in the Supplementary Materials) and chemical shift values (Figure 3a, right panel).

The test system of data set [4] is MCF-10A cells. Put plainly: Trypan blue exclusion viability test, MCF-10A. It is filed as cell-based, human. Conditions: 24 h.
Data set [5] has as its system MCF-10A cells. The data set is described as follows: MTT assay of metabolic activity, MCF-10A. Type of data set: cell-based, human.
In data set [6] the test system is CAL-27 cells, MCF-10A cells, PBMCs, and U937 cells. Conditions: read-out: IC50 metabolic activity (MTT) in all tested cells; 24 h.
For data set [7] the following is noted: phosphate buffer pH 7.4, 37 °C, nominal concentration 400 µM. As to the method:
For the NMR studies, the compounds were dissolved in DMSO-d6 and a phosphate buffer (50 mM, 5% D2O, pH = 7.4) containing, as an internal standard, 2,2,4,4-tetradeuterumtrimethylsilylpropionic acid (TSP). The NMR experiments were performed in D2O at 25 °C and recorded with a Bruker Avance spectrometer operating at 700 MHz for ^1H, equipped with a 5 mm inverse TXI probe, z-axis gradients, and a Sample Xpress Lite autosampler. The ^1H-NMR spectra were recorded with a spectral window of 15 ppm, 16 k complex points, and a relaxation delay of 10 s for a total of 16 transients.

In data set [8] the test system is MCF-10A cells. Conditions: 2-NBDG, 1 h, 10 μM and 20 μM.
Data set [9] deals with CAL-27 cells. Conditions: CAL-27, 2-NBDG, 1 h, 10 μM and 20 μM.
The test system of data set [10] is U937 cells. Type of data set: cell-based. To be noted: 18 h.
In data set [11] the test system is CAL-27 cells. The data set is described as follows: Annexin-V/7-AAD double staining flow cytometry, CAL-27. It is filed as cell-based, human. Conditions: CAL-27, 4 h; TBT-OCOCF3 20 µM, WMN 0.5 µM; mean ± SD. A general note: Flow cytometry measures light scatter and fluorescence of single cells or particles in a stream.
Setting [12] is: 24 h, ± SD, three experiments in triplicate.
The mark [13] stands for this setting: 20–80 μM, even at the higher concentration tested.

On to `N.N.[Cl][Pt][Cl]` [Cisplatin, cis-diaminedichloroplatinum (II)], for which the IC50 (as a rule, the midpoint of a concentration-inhibition curve) in the data set on U937 cells [1] (setting [12]) is 38100 ± 3230 nM; in the data set with PBMCs (24 h, ± SD, IL-2 stimulated PBMCs of healthy individuals), 52500 ± 5880 nM; in the data set with CAL-27 cells [2] (setting [12]), 139 ± 59.5 µM; in the data set with MCF-10A cells [5] (setting [12]) it was 21.5 ± 0.04 µM. Further, the “Susceptibility of cells to treatment (viable cell number)” value in the data set with CAL-27 cells [3] (setting [13]) and with MCF-10A cells [4] (setting [13]) was “resistant” in each case. For the same compound, the “Interaction with 12 bp DNA (change in NMR spectrum)” value in the data set with 12 bp DNA duplex is “showed evidence of the interaction”.
`CCC[CH2][Sn]([Cl])([CH2]CCC)[CH2]CCC` [TBT-Cl, tributyltin chloride]: the IC50 in the data set with U937 cells [1] was 420 ± 300 nM; in the data set with PBMCs, not above 1000 nM; in [6], ≤ 1000 nM and ~1000 nM; with CAL-27 cells [2], 0.91 ± 0.53 µM; with MCF-10A cells [5], 1.22 ± 0.41 µM. For the same compound, in data set [7], the Solubility (in general, the concentration that dissolves in the medium under given conditions) was 61 µM. Moreover, the “Effect on number of viable cells” value in the data set on CAL-27 cells [3] (all of the concentrations tested (1.25 to 20 μM)) is on record as “greatly decreased the number of viable cells”. Also, the Inhibition of viability in the data set with MCF-10A cells [4] (all of the tested concentrations (1.25 to 20 μM)) is on record as not below 90%.
For `CCC[CH2][Sn]([CH2]CCC)([CH2]CCC)[O][Sn]([CH2]CCC)([CH2]CCC)[CH2]CCC` [TBT-O, bis(tributyltin) oxide], the IC50 with U937 cells [1] is 1820 ± 210 nM; in the data set on PBMCs, 2960 ± 1350 nM; with CAL-27 cells [2], 13.2 µM; in the data set on MCF-10A cells [5], 4.93 ± 2.33 µM. Moreover, the Glucose uptake inhibition result in the data set with MCF-10A cells [8] and in the data set with CAL-27 cells [9] was “significantly inhibited” in each case. In data set [7], this compound displayed a Solubility of 42 µM. Also, the “Effect on trypan-blue-negative (viable) cells recovered” value in the data set with CAL-27 cells [3] (10 µM and 20 µM) is listed as “complete inhibition”. The Inhibition of viability was determined as 90% in the data set on MCF-10A cells [4] (5 µM); 100% with MCF-10A cells [4] (10 µM and 20 µM).
For `COC[C@H]1OC(=O)c2coc3c2[C@@]1(C)C1=C(C3=O)[C@@H]2CCC(=O)[C@@]2(C)C[C@H]1OC(C)=O` [WMN, wortmannin], the “Effect on rapamycin-induced autophagy” value with U937 cells [10] (U937, wortmannin 0.5 μM cotreatment with rapamycin 0.5 μM) is recorded as “significantly inhibited”. In the data set with CAL-27 cells [11], the “Anx+/7AAD+ cells” value was determined as 0.78 ± 0.04%, the “Anx+/7AAD- cells” value is 6.42 ± 2.45%, the “Anx-/7AAD+ cells” value amounted to 2.99 ± 0.02% and the Anx-/7AAD- cells is 89.8 ± 4.63%.
Take `CO[C@H]1C[C@@H]2CC[C@@H](C)[C@@](O)(O2)C(=O)C(=O)N2CCCC[C@H]2C(=O)O[C@H]([C@H](C)C[C@@H]2CC[C@@H](O)[C@H](OC)C2)CC(=O)[C@H](C)/C=C(\C)[C@@H](O)[C@@H](OC)C(=O)[C@H](C)C[C@H](C)/C=C/C=C/C=C/1C` [rapamycin]: the “Autophagic-specific fluorescent green signal compared to control cells” value in the data set on U937 cells [10] (U937, 0.5 μM) is recorded as “significant increase”.
